Data from patent US20230241056A1, “PHARMACEUTICAL COMPOSITION FOR TREATING MACULAR DEGENERATION INCLUDING IMIDAZOLINE DERIVATIVE COMPOUND AS ACTIVE INGREDIENT” (FUSION BIOTECHNOLOGY CO., LTD., priority 2021, published 2023).

Assays:
retinal tissue [1] = assay: Lesion mitigation in vivo, color fundus and fundus autofluorescence images; details: 20 ng/μl Nutlin-3 intravitreal, senescence-induced mice
Protocol: (§1) After dilation of the eye with TRC-50 IX camera (Topcon, Tokyo, Japan) connected to a digital imaging system (Nikon, Japan) and HRA2 (Heidelberg Engineering, Heidelberg, Germany), the color fundus image and fundus autofluorescence image of the eye of the mice were each captured. […] In addition, in order to identify the cell tissue alignment state, ZO-1 expression was confirmed. Specifically, after blocking the retinal tissue with 1% BSA in PBS for 1 hour, fixed tissue or cells were incubated with primary antibody against ZO-1 (1:250, Invitrogen) overnight at 4° C. Stained tissues or cells were washed twice with PBS for 5 minutes and incubated with Alexa Fluor-conjugated secondary antibody for 2 hours at room temperature. As the secondary antibody, Alexa Fluor 555-conjugated goat anti-mouse IgG (Thermo Fisher Scientific, A-11029, Waltham, USA), Alexa Fluor 488-conjugated goat anti-mouse IgG (Thermo Fisher Scientific, A-21424), Alexa Fluor 555-conjugated goat anti-rabbit IgG (Thermo Fisher Scientific, A-21424), or Alexa Fluor 488-conjugated \u200b\u200b goat anti-rabbit IgG (Thermo Fisher Scientific, A-11034) was used. All secondary antibodies were used after being diluted at the ratio of 1:1000. […]

p53 = p53 overexpression induction, western blot; assay type: cell-based, human; details: Nutlin-3 at different concentrations
Protocol: Doxorubicin-treated senescent cells (SnCs) grown in the 6-well plate of Example 1 and non-senescent cells (non-SnCs) were treated with different concentrations of Nutlin-3, and then, dissolved in RIPA buffer (Thermo Fisher Scientific, 89901) supplemented with protease inhibitor cocktail (Roche, 11697498001, Basel, Switzerland). The protein concentration of cells was quantified using BCA assay (Pierce, 23227, Waltham, USA). The same amount of protein was separated by SDS-PAGE in a 10-12% polyacrylamide gel and transferred to a polyvinylidene difluoride (PVDF) membrane. Then, the PVDF membrane was blocked with 5% skim milk powder in buffer for 1 hour, and anti-p53 (1: 500, Santa Cruz Biotechnology, SC-126) and anti-β-actin (1: 2000, Abcam, ab8226) antibodies were added thereto, incubated overnight at 4° C., and then incubated with horseradish peroxidase-conjugated anti-mouse IgG (1: 5000, Cell Signaling, 7076S) antibodies. The immunoreactive proteins were then visualized using a chemiluminescent substrate (Amersham, RDN2232, Little Chalfont, UK) and quantified with a densitometer using ImageJ software (NIH, USA). All experiments were repeated at least three times.

ZO-1 or APOE = assay: ZO-1 and drusen marker APOE expression in vivo with combination; details: senescence-induced mice of Example 12
Protocol: In addition, the expression of ZO-1 and the expression of the drusen marker APOE were confirmed to identify the cell tissue alignment state. Specifically, after blocking the retinal tissue with 1% BSA in PBS for 1 hour, fixed tissue or cells were incubated with primary antibody (1:50, Santa Cruz Biotechnology) against ZO-1 (1:250, Invitrogen) or APOE overnight at 4° C. Stained tissues or cells were washed twice with PBS for 5 minutes and incubated with Alexa Fluor-conjugated secondary antibody for 2 hours at room temperature. As the secondary antibody, Alexa Fluor 555-conjugated goat anti-mouse IgG (Thermo Fisher Scientific, A-11029, Waltham, USA), Alexa Fluor 488-conjugated goat anti-mouse IgG (Thermo Fisher Scientific, A-21424), Alexa Fluor 555-conjugated goat anti-rabbit IgG (Thermo Fisher Scientific, A-21424), or Alexa Fluor 488-conjugated \u200b\u200b goat anti-rabbit IgG (Thermo Fisher Scientific, A-11034) was used. All secondary antibodies were used after being diluted at the ratio of 1:1000. After incubation with the secondary antibody, tissues or cells were stained with nuclear dye DAPI (1:4000, Thermo Fisher Scientific, 62248) or Hoechst 33342 (1:3000, Thermo Fisher Scientific, H3570) in PBS for 15 minutes at room temperature. Thereafter, the tissues were then fixed in a fixing media (Ployscience, 18606-20, PA, USA).

retinal tissue [2] = assay: Lesion alleviation in vivo with combination, fundus autofluorescence image; details: senescence-induced mice of Example 12
Protocol: Under an optical microscope (Olympus SZ51, Tokyo, Japan), a small hole was made in the limbus using a 30-gage sterile needle (BD Science, San Jose, USA). Then, a blunt 35-gage Hamilton microsyringe (Hamilton Company, NV, USA) was slowly inserted through the hole. After injecting 1 uL of 100 ng/μl Dox or 1.4 μg/μl Alu RNA into the subretinal space of C57BL/6N or C57BL/6J mice for 7 days, 20 ng/μl Nutlin-3 (#SML0580, St. Louis, USA) or vehicle (0.4% DMSO in normal saline) was administered to the retina on day 0 and day 3, and 50 mg/kg of Nutlin-3 and 100 mg/kg of nicotinamide were mixed at the ratio of 1:2 and the mixture was administered orally through the feeding needle catheter every day for 3 days.
After dilation of the eye with TRC-50 IX camera (Topcon, Tokyo, Japan) connected to a digital imaging system (Nikon, Japan) and HRA2 (Heidelberg Engineering, Heidelberg, Germany), the fundus autofluorescence image of the eye of the mice was captured.

ZO-1 = assay: Cell tissue alignment state in vivo, ZO-1 expression; details: 20 ng/μl Nutlin-3 intravitreal, senescence-induced mice
Protocol: as §1

[3] = test system: Doxorubicin-treated senescent cells (SnCs) and non-senescent cells (ARPE-19); assay: Selective killing of senescent cells, propidium iodide staining; assay type: cell-based, human; details: PI staining
Protocol: To determine whether Nutlin-3 selectively killed senescent cells, the cells were treated with Nutlin-3 as follows and stained with propidium iodide.
Doxorubicin-treated senescent cells (SnCs) grown in the 24-well plate of Example 1 and non-senescent cells (non-SnCs) were treated with Nutlin-3 at different concentrations. After 24 hours, the medium was removed, and a medium including propidium iodide (PI, BD Biosciences, 51-66211E, 1.5 ug/ml) and Hoechst 33342 (Invitrogen, H1399, 1 ug/ml) was added to each well. After 30 minutes, images were obtained using an ultra-high-resolution confocal laser scanning microscope (Carl Zeiss, LSM 800).

retinal tissue [4] = assay: Drusen and Bruch's membrane thickness in vivo by TEM after Nutlin-3; parameters: species or system mice; details: doxorubicin and Nutlin-3 group
Protocol: The eyeball of mice in a group injected with a vehicle alone as in Example 9, a group injected with doxorubicin and a vehicle, and a group injected with doxorubicin and Nutlin-3, were fixed with a solution including 2% glutaraldehyde and 3.75% sucrose in 0.1 M sodium phosphate buffer (pH 7.0) for 30 minutes, and washed three times with 0.1 M PBS including 3.75% sucrose for 30 minutes to prepare a sample for TEM. The eye was fixed with a solution including 0.1% osmium tetraoxide and 5% sucrose in 0.05 M sodium phosphate buffer (pH 7.0) for 1 hour and rinsed three times with distilled water. The sample was then dehydrated in a series of acetone solutions (step 20%), which are graded, and embedded in an epoxy resin. The resin was polymerized at 70° C. for 12 hours. Ultra-thin sections (100 nm) were obtained using RMC CR-X ultra microtomes and then images thereof were obtained using a JEOL JEM-1400 electron microscope. The thickness of the Bruch's membrane was measured using TEM. The average thickness of the Bruch's film was determined by measuring the thicknesses in the nine images of respective groups, and the results are shown in FIGS. 16 and 17.

[5] = test system: senescent cells of the retinal tissue; assay: Senescent cell killing in vivo, SA-β-gal staining of retinal tissue; details: 20 ng/μl Nutlin-3 intravitreal, 2 injections, Dox or Alu RNA induced mice
Source text: Anterior eyeballs were dissected in cold PBS.

ARPE-19 cells = assay: Induction of senescent cells by doxorubicin, SA-β-gal staining; assay type: cell-based, human; details: 250 nM doxorubicin, 3 days
Source text: ARPE-19, a human retinal pigment epithelium (RPE) cell line, was induced into senescent cells using doxorubicin (Dox), which is used to form peroxide anions, induce DNA damage, and induce cell aging.
ARPE-19 cells were obtained from American Type Culture Collection (ATCC, CRL-2302, Va., U.S.A.), and cultured using a Dulbecco's modified Eagle's medium/nutrient mixture F-12 (WellGene, LM 002-04, Korea) supplemented with 10% fetal bovine serum (Invitrogen 16000, Waltham, U.S.A.) and penicillin-streptomycin (pen/strep, WellGene, LS 202-02) in a humidifying incubator having 5% CO2 at the temperature of 37° C. Cells were used after the cells were subcultured to 15-25 passages and reached the density population of about 70%-about 80%.
The cultured ARPE-19 cells were seeded in 24- or 6-well plates at a density of 25,000 or 100,000 cells per well prior to inducing cell aging with doxorubicin (Dox, Tocris Bioscience #2252, Bristol, UK). After 24 hours, 250 nM doxorubicin was added and the cells were incubated for another 3 days. After 3 days, the cells were placed in a doxorubicin-free medium and the medium was replaced daily. On day 10, senescent cells (SnCs) that were treated with doxorubicin and non-senescent cells (non-SnCs) that were not treated with doxorubicin but replaced with medium alone were seeded into 24- or 6-well plates for further experiments. […]

retinal tissue [6] = assay: Drusen and Bruch's membrane thickness by TEM after senescence induction with doxorubicin; assay type: in vivo, mice; details: 100 ng/μl Dox subretinal
Protocol: Under an optical microscope (Olympus SZ51, Tokyo, Japan), a small hole was made in the limbus using a 30-gage sterile needle (BD Science, San Jose, USA). Then, a blunt 35-gage Hamilton microsyringe (Hamilton Company, NV, USA) was slowly inserted through the hole. 1 uL of 100 ng/μl Dox or 1.4 μg/μl Alu RNA was injected into the subretinal space of C57BL/6N or C57BL/6J mice for 7 days. In addition, the eye of mice was fixed with a solution including 2% glutaraldehyde and 3.75% sucrose in 0.1 M sodium phosphate buffer (pH 7.0), for 30 minutes, and washed three times with 0.1 M PBS including 3.75% sucrose for 30 minutes to prepare a sample for TEM. The eye was fixed with a solution including 0.1% osmium tetraoxide and 5% sucrose in 0.05 M sodium phosphate buffer (pH 7.0) for 1 hour and rinsed three times with distilled water. The sample was then dehydrated in a series of acetone solutions (step 20%), which were graded, and embedded in an epoxy resin. The resin was polymerized at 70° C. for 12 hours. Ultra-thin sections (100 nm) were obtained using RMC CR-X ultra microtomes and then images thereof were obtained using a JEOL JEM-1400 electron microscope. The thickness of the Bruch's membrane was measured using TEM.

| Structure (SMILES) | waste in fundus images compared to vehicle group (retinal tissue [1]) | expression of p53 in senescent cells (p53) | cell tissue alignment state (ZO-1) compared to vehicle group (ZO-1 or APOE) | waste in fundus autofluorescence image compared to vehicle group (retinal tissue [2]) | cell tissue alignment (ZO-1) compared to vehicle group (ZO-1) | senescent cells killed compared with non-senescent cells ([3]; 50 uM Nutlin-3, 24 hours) [times] | senescent cells killed compared with non-senescent cells ([3]; 75 uM Nutlin-3, 24 hours) [times] | amount of drusen compared to vehicle-only senescent cells (retinal tissue [4]) | thickness of the Bruch's membrane compared to vehicle-only senescent cells (retinal tissue [4]) | β-galactosidase expression compared to vehicle group [5] | induction of ARPE-19 cells into senescent cells (SA-β-gal staining) (ARPE-19 cells) | amount of drusen after senescent cell induction (retinal tissue [6]) | thickness of the Bruch's membrane after senescent cell induction (retinal tissue [6]) |
| --- | --- | --- | --- | --- | --- | --- | --- | --- | --- | --- | --- | --- | --- |
| COc1ccc(C2=N[C@@H](c3ccc(Cl)cc3)[C@@H](c3ccc(Cl)cc3)N2C(=O)N2CCNC(=O)C2)c(OC(C)C)c1 [Nutlin-3] | significantly reduced | further increased | improved | significantly reduced | improved | 7 | 3 | reduced | reduced | low | – | – | – |
| COc1cccc2c1C(=O)c1c(O)c3c(c(O)c1C2=O)C[C@@](O)(C(=O)CO)C[C@@H]3O[C@H]1C[C@H](N)[C@H](O)[C@H](C)O1 [doxorubicin] | – | – | – | – | – | – | – | – | – | – | induced to senescent cells | increased | increased |
